Source: US20110008328A1, “METHOD FOR CONTROLLING GLUCOSE UPTAKE AND INSULIN SENSITIVITY” (Pfizer Inc., priority 2007, published 2011)

Assays:
[1] = Hyperinsulinemic-euglycemic clamp in human patients (rate of glucose disposal, Rd); format: in vivo; conditions: obese, insulin resistant patients, post-Rx, pioglitazone 45 mg/day for 3 months; average ± standard error
[2] = Hyperinsulinemic euglycemic clamp in Zucker rats (rate of glucose disposal, Rd); format: in vivo, rat; conditions: obese Zucker (fa/fa) rats, post-Rx, pioglitazone 10 mg/kg/day in chow for 3 weeks; average ± standard error
Description: Peripheral insulin sensitivity (measured as the rate of glucose disposal, Rd) of the rat and human groups was measured using the hyperinsulinemic euglycemic clamp procedure. Clinical characteristics of the rats and humans are detailed in Table 1. OPN expression in adipose tissue was elevated in obese, insulin resistant rats (17-fold) and humans (4.6-fold) compared to insulin sensitive lean controls. […] In fact, when the pre-treatment patient data was combined, there was a significant correlation between adipose tissue OPN RNA levels and Rd (FIG. 1C).
Male C57Bl/6J WT mice (cat #000664) and OPN KO mice (B6.Cg-Spp1tm2blh/J, cat #004936) were purchased from Jackson Laboratories. […]
(§1) Insulin sensitivity was determined by hyperinsulinemic euglycemic clamp, as previously published (Hevener, A L, et al., 2001, Diabetes 50, 2316-2322). […] Plasma glucose specific activity was measured after deproteinization with barium hydroxide and zinc sulfate (Revers, R R, 1984, J Clin Invest 73, 664-672). Hepatic glucose output (HGO) and glucose disposal rate (GDR) were calculated for the basal period and the steady-state portion of the glucose clamp using the Steele equation for steady-state conditions (Steele R. Influences of glucose loading and of injected insulin on hepatic glucose output. Ann N Y Acad Sci 82: 420-430, 1959). […]

[3] = Body weight and fasting plasma analyses in Zucker rats; format: in vivo, rat; conditions: obese Zucker (fa/fa) rats, post-Rx, pioglitazone 10 mg/kg/day in chow for 3 weeks; average ± standard error
Description: Male C57Bl/6J WT mice (cat #000664) and OPN KO mice (B6.Cg-Spp1tm2blh/J, cat #004936) were purchased from Jackson Laboratories. This OPN KO mouse line has been backcrossed into the C57Bl/6J background >10 generations. Mouse diets were as follows: normal chow diet (12% kcal from fat; Purina 5001, LabDiet) and high fat diet (41% kcal from fat; TD96132, Harlan Teklad). Mice were 4-6 months of age and age-matched in all studies. Male lean Zucker (fa/+) and fatty Zucker (fa/fa) rats were purchased from Charles River. […] All rats were nine weeks of age at time of terminal metabolic studies and tissue harvest. All animals were housed 1-3 per cage under controlled light (12:12 light:dark) and climate conditions. Animals had unlimited access to food and water.
as §1
Plasma insulins were measured by radioimmune assay kit (Linco Research, St. Charles, Mo.). Plasma FFA levels were measured enzymatically using a commercially available kit (NEFA C; Wako Chemicals USA). Triglycerides were measured using the Triglyceride-SL Assay (Diagnostic Chemicals Ltd.). Cholesterol was measured using the Chol kit and Roche/Hitachi analyzer (Roche). Tissue lysates were analyzed by SDS-PAGE, western blotting and chemiluminescence and by ELISA. Signal intensities of chemiluminescence autoradiographs were densitometrically quantified using a digital Kodak 3D Imagestation and associated digital image analysis software (Kodak, New. Haven, Conn.). […]

[4] = BMI and fasting plasma analyses in human patients; format: in vivo; conditions: post-Rx, pioglitazone 45 mg/day for 3 months, average ± standard error
Description: Baseline plasma samples were drawn and hyperinsulinemic-euglycemic clamps were performed in the morning after a 10 hr fast as previously described (Frias, J P et al., 2000, Diabetes Care 23, 64-69; Yu, J G et al., 2002, Diabetes 51, 2968-2974). The experimental protocol was approved by the Institutional Review Board of the University of California, San Diego. Informed written consent was obtained from each subject.
Plasma insulins were measured by radioimmune assay kit (Linco Research, St. Charles, Mo.). Plasma FFA levels were measured enzymatically using a commercially available kit (NEFA C; Wako Chemicals USA). Triglycerides were measured using the Triglyceride-SL Assay (Diagnostic Chemicals Ltd.). Cholesterol was measured using the Chol kit and Roche/Hitachi analyzer (Roche). Tissue lysates were analyzed by SDS-PAGE, western blotting and chemiluminescence and by ELISA. Signal intensities of chemiluminescence autoradiographs were densitometrically quantified using a digital Kodak 3D Imagestation and associated digital image analysis software (Kodak, New. Haven, Conn.). IL-1β, IL-12p70, IFNγ, IL-6, IL-10, Cxcl1 and TNFα levels in plasma and tissue lysates were measured using a multiplex (7-plex) ELISA (Meso Scale Discovery).

[5] = lean, insulin sensitive patients
[6] = obese, insulin resistant patients

## CCc1ccc(CCOc2ccc(CC3SC(=O)NC3=O)cc2)nc1 (stereo not shown) [pioglitazone]
[1]
  Glucose disposal, Rd: 5.9 ± 0.5 mg/kg/min
[2]
  Glucose disposal, Rd: 30.6 ± 2.9 mg/kg/min
[3]
  Fasting plasma free fatty acids: 0.69 ± 0.29 mmol/L
  Fasting plasma glucose: 124.8 ± 4.0 ^ mg/dL
  Fasting plasma triglyceride: 108.0 ± 16.1 mg/dL
[4]; [5]
  Fasting plasma free fatty acids: 414 ± 90 µM
  Fasting plasma glucose: 87.6 ± 3.1 mg/dL
  Fasting plasma insulin: 10.1 ± 2.2 pmol/L
  Fasting plasma triglyceride: 76.0 ± 9.2 mg/dL
[4]; [6]
  Fasting plasma free fatty acids: 434 ± 59 µM
  Fasting plasma glucose: 91.7 ± 2.5 mg/dL
  Fasting plasma insulin: 13.6 ± 1.6 pmol/L
  Fasting plasma triglyceride: 137.7 ± 7.2 mg/dL
